Where two headings read alike, the source gives them in different places.
Columns and labels:
P450 3A4 [1] = biological target: T1, P450 3A4 (Homo sapiens, UniProt P08684); test: BG-mediated inactivation of P450 3A4 in a reconstituted system, testosterone 6β-hydroxylation activity; conditions: reconstituted system
Target sequence in this assay (P08684 with tags, fused parts or gaps): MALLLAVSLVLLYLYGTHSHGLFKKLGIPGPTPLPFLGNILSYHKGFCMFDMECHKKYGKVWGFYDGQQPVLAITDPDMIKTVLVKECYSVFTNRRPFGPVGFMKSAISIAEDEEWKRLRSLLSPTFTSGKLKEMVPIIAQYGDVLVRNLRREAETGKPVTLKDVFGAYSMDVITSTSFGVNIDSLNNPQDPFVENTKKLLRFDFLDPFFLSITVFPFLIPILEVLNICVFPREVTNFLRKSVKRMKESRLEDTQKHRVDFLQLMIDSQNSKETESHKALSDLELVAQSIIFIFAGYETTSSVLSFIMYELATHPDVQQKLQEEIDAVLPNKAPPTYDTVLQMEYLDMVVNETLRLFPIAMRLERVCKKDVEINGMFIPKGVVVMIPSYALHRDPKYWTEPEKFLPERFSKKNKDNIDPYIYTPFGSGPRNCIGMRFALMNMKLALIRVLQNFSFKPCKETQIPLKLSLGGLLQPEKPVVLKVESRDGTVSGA

P450 3A4 [2] = biological target: T1, P450 3A4; conditions: in vivo; cited from earlier work
Target sequence in this assay (P08684 whole entry): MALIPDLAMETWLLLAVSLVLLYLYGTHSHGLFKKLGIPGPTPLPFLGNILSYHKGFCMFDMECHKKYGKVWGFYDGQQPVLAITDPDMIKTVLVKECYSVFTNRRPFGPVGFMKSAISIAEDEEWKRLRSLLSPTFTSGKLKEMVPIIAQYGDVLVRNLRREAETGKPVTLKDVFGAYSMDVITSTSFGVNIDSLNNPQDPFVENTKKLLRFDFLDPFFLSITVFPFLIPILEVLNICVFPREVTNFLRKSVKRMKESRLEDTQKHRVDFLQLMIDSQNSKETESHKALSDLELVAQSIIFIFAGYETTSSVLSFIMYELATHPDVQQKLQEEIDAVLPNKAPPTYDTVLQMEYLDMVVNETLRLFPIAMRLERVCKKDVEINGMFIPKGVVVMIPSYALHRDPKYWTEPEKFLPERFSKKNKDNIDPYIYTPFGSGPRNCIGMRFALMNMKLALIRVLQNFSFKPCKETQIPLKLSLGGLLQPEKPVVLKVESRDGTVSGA

[3] = cited from earlier work
P450 3A4 [4] = biological target: T1, P450 3A4; conditions: other potent inactivators of P450 3A4, literature; cited from earlier work
Target sequence in this assay (P08684 whole entry): as above

For `CC(=CCOc1c2ccoc2cc2oc(=O)ccc12)CCC(O)C(C)(C)O` (stereo not drawn) [6′,7′-dihydroxybergamottin], the “Kinactivation (maximal rate constant of inactivation)” value (P450 3A4 [1]) was 0.16 min⁻¹.
For `COc1ccc(CCN2CCC(Nc3nc4ccccc4n3Cc3ccc(F)cc3)CC2)cc1` [Astemizole], the “Fraction Metabolized” value (P450 3A4 [2]) is listed as over 90% and the “Oral Bioavailability” value ([3]; oral) is listed as “Low”.
In the case of `CC[C@H]1OC(=O)[C@H](C)[C@@H](O[C@H]2C[C@@](C)(OC)[C@@H](O)[C@H](C)O2)[C@H](C)[C@@H](O[C@@H]2O[C@H](C)C[C@H](N(C)C)[C@H]2O)[C@](C)(O)C[C@@H](C)CN(C)[C@H](C)[C@@H](O)[C@]1(C)O` [Azithromycin], the “Oral Bioavailability” value ([3]; oral) is given as 35-45%.
For `NC(=O)N1c2ccccc2C=Cc2ccccc21` [Carbamazepine], the “Fraction Metabolized” value (P450 3A4 [2]) is listed as over 90% and the “Oral Bioavailability” value ([3]; oral) is listed as over 70%.
In the case of `COc1cc(N)c(Cl)cc1C(=O)NC1CCN(CCCOc2ccc(F)cc2)CC1OC` (stereo not drawn) [Cisapride], the “Oral Bioavailability” value ([3]; oral) is given as 35-40%.
In the case of `CC[C@H]1OC(=O)[C@H](C)[C@@H](O[C@H]2C[C@@](C)(OC)[C@@H](O)[C@H](C)O2)[C@H](C)[C@@H](O[C@@H]2O[C@H](C)C[C@H](N(C)C)[C@H]2O)[C@](C)(OC)C[C@@H](C)C(=O)[C@H](C)[C@@H](O)[C@]1(C)O` [Clarithromycin], the “Fraction Metabolized” value (P450 3A4 [2]) is given as over 70% and the “Oral Bioavailability” value ([3]; oral) is given as 50-55%.
For `CN1C[C@H](C(=O)N[C@]2(C)O[C@@]3(O)[C@@H]4CCCN4C(=O)[C@H](Cc4ccccc4)N3C2=O)C=C2c3cccc4[nH]cc(c34)C[C@H]21` [Ergotamine], the “Fraction Metabolized” value (P450 3A4 [2]) is listed as over 90% and the “Oral Bioavailability” value ([3]; oral) is listed as under 1%.
For `CC[C@H]1OC(=O)[C@H](C)[C@@H](O[C@H]2C[C@@](C)(OC)[C@@H](O)[C@H](C)O2)[C@H](C)[C@@H](O[C@@H]2O[C@H](C)C[C@H](N(C)C)[C@H]2O)[C@](C)(O)C[C@@H](C)C(=O)[C@H](C)[C@@H](O)[C@]1(C)O` [Erythromycin], the “Oral Bioavailability” value ([3]; oral) is given as 30-65%.
In the case of `COc1cc([C@@H]2c3cc4c(cc3[C@@H](O[C@@H]3O[C@@H]5CO[C@@H](C)O[C@H]5[C@H](O)[C@H]3O)[C@H]3COC(=O)[C@H]23)OCO4)cc(OC)c1O` [Etoposide], the “Oral Bioavailability” value ([3]; oral) is given as 35-70%.
For `CCOC(=O)C1=C(C)NC(C)=C(C(=O)OC)C1c1cccc(Cl)c1Cl` (stereo not drawn) [Felodipine], the “Oral Bioavailability” value ([3]; oral) is given as 15-25%.
In the case of `CC(C)n1c(/C=C/C(O)CC(O)CC(=O)O)c(-c2ccc(F)cc2)c2ccccc21` (stereo not drawn) [Fluvastatin], the “Fraction Metabolized” value (P450 3A4 [2]) is listed as “˜90%” and the “Oral Bioavailability” value ([3]; oral) is listed as 50-9%.
For `COC(=O)C1=C(C)NC(C)=C(C(=O)OC(C)C)C1c1cccc2nonc12` (stereo not drawn) [Isradipine], the “Fraction Metabolized” value (P450 3A4 [2]) is listed as over 90% and the “Oral Bioavailability” value ([3]; oral) is listed as 15-25%.
In the case of `CCC(C)n1ncn(-c2ccc(N3CCN(c4ccc(OCC5COC(Cn6cncn6)(c6ccc(Cl)cc6Cl)O5)cc4)CC3)cc2)c1=O` (stereo not drawn) [Itraconazole], the “Fraction Metabolized” value (P450 3A4 [2]) is listed as over 90% and the “Oral Bioavailability” value ([3]; oral) is listed as 44-55%.
In the case of `Cc1ncc2n1-c1ccc(Cl)cc1C(c1ccccc1F)=NC2` [Midazolam], the “Fraction Metabolized” value (P450 3A4 [2]) is listed as over 90% and the “Oral Bioavailability” value ([3]; in vivo, po) is listed as 40-50%.
In the case of `COC(=O)C1=C(C)NC(C)=C(C(=O)OCCN(C)Cc2ccccc2)C1c1cccc([N+](=O)[O-])c1` (stereo not drawn) [Nicardipine], the “Fraction Metabolized” value (P450 3A4 [2]) is listed as over 90% and the “Oral Bioavailability” value ([3]; oral) is listed as 20-30%.
For `COCCOC(=O)C1=C(C)NC(C)=C(C(=O)OC(C)C)C1c1cccc([N+](=O)[O-])c1` (stereo not drawn) [Nimodipine], the “Oral Bioavailability” value ([3]; oral) is given as 15-10%.
In the case of `COC(=O)C1=C(C)NC(C)=C(C(=O)OCC(C)C)C1c1ccccc1[N+](=O)[O-]` (stereo not drawn) [Nisoldipine], the “Oral Bioavailability” value ([3]; oral) is given as “˜5%”.
For `CCOC(=O)C1=C(C)NC(C)=C(C(=O)OC)C1c1cccc([N+](=O)[O-])c1` (stereo not drawn) [Nitrendipine], the “Fraction Metabolized” value (P450 3A4 [2]) is given as over 90% and the “Oral Bioavailability” value ([3]; oral) is given as 16-6%.
In the case of `O=c1[nH]c2ccccc2n1C1CCN(CCCC(c2ccc(F)cc2)c2ccc(F)cc2)CC1` [Pimozide], the “Fraction Metabolized” value (P450 3A4 [2]) is listed as over 90%.
For `CC[C@H](C)C(=O)O[C@H]1C[C@H](O)C=C2C=C[C@H](C)[C@H](CC[C@@H](O)C[C@@H](O)CC(=O)O)[C@H]21` [Pravastatin], the “Fraction Metabolized” value (P450 3A4 [2]) is listed as over 50% and the “Oral Bioavailability” value ([3]; oral) is listed as 25-10%.
For `CO[C@H]1/C=C/O[C@@]2(C)Oc3c(C)c(O)c4c(c3C2=O)C2=NC3(CCN(CC(C)C)CC3)NC2=C(NC(=O)/C(C)=C\C=C\[C@H](C)[C@H](O)[C@@H](C)[C@@H](O)[C@@H](C)[C@H](OC(C)=O)[C@@H]1C)C4=O` [Rifabutin], the “Fraction Metabolized” value (P450 3A4 [2]) is listed as over 90% and the “Oral Bioavailability” value ([3]; oral) is listed as 20-12%.
For `CC(C)(C)NC(=O)[C@@H]1C[C@@H]2CCCC[C@@H]2CN1C[C@@H](O)[C@H](Cc1ccccc1)NC(=O)[C@H](CC(N)=O)NC(=O)c1ccc2ccccc2n1` [Saquinavir], the “Fraction Metabolized” value (P450 3A4 [2]) is listed as over 90%.
For `CN[C@H]1CC[C@@H](c2ccc(Cl)c(Cl)c2)c2ccccc21` [Sertraline], the “Fraction Metabolized” value (P450 3A4 [2]) is listed as over 90%.
In the case of `CO[C@H]1C[C@@H]2CC[C@@H](C)[C@@](O)(O2)C(=O)C(=O)N2CCCC[C@H]2C(=O)O[C@H]([C@H](C)C[C@@H]2CC[C@@H](O)[C@H](OC)C2)CC(=O)[C@H](C)/C=C(\C)[C@@H](O)[C@@H](OC)C(=O)[C@H](C)C[C@H](C)/C=C/C=C/C=C/1C` [Sirolimus(rapamycin), Sirolimus], the “Fraction Metabolized” value (P450 3A4 [2]) is listed as over 90% and the “Oral Bioavailability” value ([3]; oral) is listed as 20-10%.
For `C=CC[C@@H]1/C=C(\C)C[C@H](C)C[C@H](OC)[C@H]2O[C@@](O)(C(=O)C(=O)N3CCCC[C@H]3C(=O)O[C@H](/C(C)=C/[C@@H]3CC[C@@H](O)[C@H](OC)C3)[C@H](C)[C@@H](O)CC1=O)[C@H](C)C[C@@H]2OC` [Tacrolimus (FK506), Tacrolimus], the “Fraction Metabolized” value (P450 3A4 [2]) is given as over 90% and the “Oral Bioavailability” value ([3]; oral) is given as 20-15%.
In the case of `C[C@]12CC[C@H]3[C@@H](CCC4=CC(=O)CC[C@@]43C)[C@@H]1CC[C@@H]2O` [Testosterone], the “Fraction Metabolized” value (P450 3A4 [2]) is listed as over 90% and the “Oral Bioavailability” value ([3]; oral) is listed as “Poor”.
In the case of `Cc1nnc2n1-c1ccc(Cl)cc1C(c1ccccc1Cl)=NC2` [Triazolam], the “Fraction Metabolized” value (P450 3A4 [2]) is given as over 90% and the “Oral Bioavailability” value ([3]; oral) is given as 45-70%.
In the case of `CC[C@]1(O)C[C@@H]2CN(CCc3c([nH]c4ccccc34)[C@@](C(=O)OC)(c3cc4c(cc3OC)N(C)[C@H]3[C@@](O)(C(=O)OC)[C@H](OC(C)=O)[C@]5(CC)C=CCN6CC[C@]43[C@@H]65)C2)C1` [Vinblastine], the “Fraction Metabolized” value (P450 3A4 [2]) is listed as over 50% and the “Oral Bioavailability” value ([3]; oral) is listed as “Poor”.
For `CC[C@]1(O)C[C@H]2CN(CCc3c([nH]c4ccccc34)[C@@](C(=O)OC)(c3cc4c(cc3OC)N(C=O)[C@H]3[C@@](O)(C(=O)OC)[C@H](OC(C)=O)[C@]5(CC)C=CCN6CC[C@]43[C@@H]65)C2)C1` [Vincristine], the “Fraction Metabolized” value (P450 3A4 [2]) is listed as over 50% and the “Oral Bioavailability” value ([3]; oral) is listed as “Poor”.
For `C#C[C@]1(O)C=C[C@H]2[C@@H]3CCC4=CC(=O)CC[C@@H]4[C@H]3CC[C@@]21CC` [gestodene], the Kinactivation (P450 3A4 [4]) is given as 0.4 min⁻¹.

Reference: patent publication US6509371B1, “Compositions containing Bergamottin for increasing the oral bioavailability of pharmaceutical agents” (Warner-Lambert Company, priority 1997, dated 2003)
